Among the data in patent US8574563B2 (Bristol-Myers Squibb Company, priority 2006, dated 2013) are EC50 values, retold here.

For orientation: EC50 means the concentration at which the effect is half-maximal.

SMILES strings stand for the structures.

This test concerns HCV 1b-377-neo replicon cells. The test is described as follows: HCV replicon assay, HCV 1b-377-neo replicon cells (1b FRET). The class given is cell-based, Hepatitis C virus genotype 1b. Particulars: Hepatitis C virus, HCV 1b-377-neo replicon cells; HCV 1b genotype; read-out: EC50 range against HCV 1b (Table 2, Range). The gist of the method:
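FRET-based replicon assay in HCV 1b-377-neo cells, including a comparison line carrying the NS5A Y2065H mutation that confers resistance to a reference compound.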
On the technique in general: In antiviral work, replicon cells carry a viral genome segment that copies itself.
On to `CCN(CC)[C@@H](C(=O)N1CCC[C@H]1c1ncc(-c2ccc(-c3ccc(-c4cnc([C@@H]5CCCN5C(=O)[C@H](NC(=O)OC)C5CC5)[nH]4)cc3)cc2)[nH]1)c1ccccc1` [Example M56, methyl ((1R)-1-cyclopropyl-2-((2S)-2-(5-(4′-(2-((2S)-1-((2R)-2-(diethylamino)-2-phenylacetyl)-2-pyrrolidinyl)-1H-imidazol-5-yl)-4-biphenylyl)-1H-imidazol-2-yl)-1-pyrrolidinyl)-2-oxoethyl)carbamate], for which the EC50 lay in the range of 1 to 99 nM.

Turning to `CCN(CC)[C@@H](C(=O)N1CCC[C@H]1c1ncc(-c2ccc(-c3ccc(-c4cnc([C@@H]5CCCN5C(=O)C[C@@H](Cc5cccs5)NC(=O)OC)[nH]4)cc3)cc2)[nH]1)c1ccccc1` [cj-56, methyl ((1S)-3-((2S)-2-(5-(4′-(2-((2S)-1-((2R)-2-(diethylamino)-2-phenylacetyl)-2-pyrrolidinyl)-1H-imidazol-5-yl)-4-biphenylyl)-1H-imidazol-2-yl)-1-pyrrolidinyl)-3-oxo-1-(2-thienylmethyl)propyl)carbamate], the EC50 fell in the range of 0.001 to 0.999 nM. To `CC(C)[C@H](N)C(=O)N1[C@@H]2C[C@@H]2C[C@H]1c1nc(-c2ccc(-c3ccc(-c4cnc([C@@H]5C[C@H]6C[C@H]6N5C(=O)[C@@H](N)C(C)C)[nH]4)cc3)cc2)c[nH]1` [Example M140a-i, (2S)-1-((1R,3S,5R)-3-(4-(4′-(2-((1R,3S,5R)-2-((2S)-2-amino-3-methylbutanoyl)-2-azabicyclo[3.1.0]hex-3-yl)-1H-imidazol-5-yl)-4-biphenylyl)-1H-imidazol-2-yl)-2-azabicyclo[3.1.0]hex-2-yl)-3-methyl-1-oxo-2-butanamine] belongs 1 to 99 nM. Then `CCN(CC)[C@@H](C(=O)N1CCC[C@H]1c1ncc(-c2ccc(-c3ccc(-c4cnc([C@@H]5CCCN5C(=O)[C@H](Cc5cccnc5)NC(=O)OC)[nH]4)cc3)cc2)[nH]1)c1ccccc1` [cj-84, methyl ((1S)-2-((2S)-2-(5-(4′-(2-((2S)-1-((2R)-2-(diethylamino)-2-phenylacetyl)-2-pyrrolidinyl)-1H-imidazol-5-yl)-4-biphenylyl)-1H-imidazol-2-yl)-1-pyrrolidinyl)-2-oxo-1-(3-pyridinylmethyl)ethyl)carbamate], with 0.001 to 0.999 nM; and `COC(=O)N[C@@H](Cc1ccncc1)C(=O)N1CCC[C@H]1c1ncc(-c2ccc(-c3ccc(-c4cnc([C@@H]5CCCN5C(=O)[C@@H](NC(=O)OC)C(C)C)[nH]4)cc3)cc2)[nH]1` [cj-88, methyl ((1S)-2-((2S)-2-(5-(4′-(2-((2S)-1-((2S)-2-((methoxycarbonyl)amino)-3-methylbutanoyl)-2-pyrrolidinyl)-1H-imidazol-5-yl)-4-biphenylyl)-1H-imidazol-2-yl)-1-pyrrolidinyl)-2-oxo-1-(4-pyridinylmethyl)ethyl)carbamate], with 0.001 to 0.999 nM. Then `COC(=O)N[C@@H](Cc1ccc(CN)cc1)C(=O)N1CCC[C@H]1c1ncc(-c2ccc(-c3ccc(-c4cnc([C@@H]5CCCN5C(=O)[C@@H](NC(=O)OC)C(C)C)[nH]4)cc3)cc2)[nH]1` [cj-103, methyl ((1S)-1-(4-(aminomethyl)benzyl)-2-((2S)-2-(5-(4′-(2-((2S)-1-((2S)-2-((methoxycarbonyl)amino)-3-methylbutanoyl)-2-pyrrolidinyl)-1H-imidazol-5-yl)-4-biphenylyl)-1H-imidazol-2-yl)-1-pyrrolidinyl)-2-oxoethyl)carbamate], with 0.001 to 0.999 nM; and `COC(=O)N[C@@H](Cc1ccccn1)C(=O)N1CCC[C@H]1c1ncc(-c2ccc(-c3ccc(-c4cnc([C@@H]5CCCN5C(=O)[C@H](Cc5ccccn5)NC(=O)OC)[nH]4)cc3)cc2)[nH]1` [cj-130, methyl ((1S)-2-((2S)-2-(5-(4′-(2-((2S)-1-((2S)-2-((methoxycarbonyl)amino)-3-(2-pyridinyl)propanoyl)-2-pyrrolidinyl)-1H-imidazol-5-yl)-4-biphenylyl)-1H-imidazol-2-yl)-1-pyrrolidinyl)-2-oxo-1-(2-pyridinylmethyl)ethyl)carbamate], with 0.001 to 0.999 nM. For the compound `COCC[C@H](NC(=O)OC)C(=O)N1CCC[C@H]1c1ncc(-c2ccc(-c3ccc(-c4cnc([C@@H]5CCCN5C(=O)[C@H](CCOC)NC(=O)OC)[nH]4)cc3)cc2)[nH]1` [cj-156, methyl ((1S)-3-methoxy-1-(((2S)-2-(5-(4′-(2-((2S)-1-(N-(methoxycarbonyl)-O-methyl-L-homoseryl)-2-pyrrolidinyl)-1H-imidazol-5-yl)-4-biphenylyl)-1H-imidazol-2-yl)-1-pyrrolidinyl)carbonyl)propyl)carbamate], the EC50 fell in the range of 0.001 to 0.999 nM.

`COC(=O)N[C@@H](C(=O)N1CCC[C@H]1c1ncc(-c2ccc(-c3ccc(-c4cnc([C@@H]5CCCN5C(=O)C5CCN(C(=O)OC(C)(C)C)CC5)[nH]4)cc3)cc2)[nH]1)c1ccccc1` [Example 84-36, tert-butyl 4-(((2S)-2-(5-(4′-(2-((2S)-1-((2R)-2-((methoxycarbonyl)amino)-2-phenylacetyl)-2-pyrrolidinyl)-1H-imidazol-5-yl)-4-biphenylyl)-1H-imidazol-2-yl)-1-pyrrolidinyl)carbonyl)-1-piperidinecarboxylate]: the EC50 is 0.001 to 0.999 nM.

`CN(C)[C@@H](C(=O)N1CCC[C@H]1c1ncc(-c2ccc(-c3ccc(-c4cnc([C@@H]5CCCN5C(=O)Cc5ccsc5)[nH]4)cc3)cc2)[nH]1)c1ccccc1` [Example 94-48, (1R)-N,N-dimethyl-2-oxo-1-phenyl-2-((2S)-2-(5-(4′-(2-((2S)-1-(3-thienylacetyl)-2-pyrrolidinyl)-1H-imidazol-5-yl)-4-biphenylyl)-1H-imidazol-2-yl)-1-pyrrolidinyl)ethanamine]: the concentration giving a half-maximal response (EC50) lay in the range of 0.001 to 0.999 nM. `COC(=O)N[C@@H](Cc1c[nH]cn1)C(=O)N1CCC[C@H]1c1ncc(-c2ccc(-c3ccc(-c4cnc([C@@H]5CCCN5C(=O)[C@H](Cc5c[nH]cn5)NC(=O)OC)[nH]4)cc3)cc2)[nH]1` [cj-131, methyl ((1S)-2-((2S)-2-(5-(4′-(2-((2S)-1-((2S)-3-(1H-imidazol-4-yl)-2-((methoxycarbonyl)amino)propanoyl)-2-pyrrolidinyl)-1H-imidazol-5-yl)-4-biphenylyl)-1H-imidazol-2-yl)-1-pyrrolidinyl)-1-(1H-imidazol-4-ylmethyl)-2-oxoethyl)carbamate]: the EC50 fell in the range of 1 to 99 nM. Take `COC(=O)NC(C(=O)N1CCC[C@H]1c1ncc(-c2ccc(-c3ccc(-c4cnc([C@@H]5CCCN5C(=O)[C@@H](NC(=O)OC)C(C)C)[nH]4)cc3)cc2F)[nH]1)[C@@H](C)OC` (stereo in doubt) [Example D42, methyl ((1S,2R)-1-(((2S)-2-(5-(3-fluoro-4′-(2-((2S)-1-(N-(methoxycarbonyl)-L-valyl)-2-pyrrolidinyl)-1H-imidazol-5-yl)-4-biphenylyl)-1H-imidazol-2-yl)-1-pyrrolidinyl)carbonyl)-2-methoxypropyl) carbamate]: the EC50 was 0.001 to 0.999 nM. For `COC(=O)N[C@@H](C(=O)N[C@@H](C)c1ncc(-c2ccc(-c3ncc(-c4cnc([C@@H]5CCCN5C(=O)[C@H](NC(=O)OC)c5ccccc5)[nH]4)cn3)cc2)[nH]1)c1ccccc1` [Example 152j-15, methyl ((1R)-2-((2S)-2-(5-(2-(4-(2-((1S)-1-(((2R)-2-((methoxycarbonyl)amino)-2-phenylacetyl)amino)ethyl)-1H-imidazol-5-yl)phenyl)-5-pyrimidinyl)-1H-imidazol-2-yl)-1-pyrrolidinyl)-2-oxo-1-phenylethyl)carbamate], the concentration for a half-maximal effect (EC50) was 0.001 to 0.999 nM.
